Data on 5 molecules can be found in US5773646A, “Meta-substituted phenylene derivatives” (G. D. Searle & Co., priority 1997, dated 1998).

Structures can show the parent of a compound that is named as a salt.

Experiment [1] concerns the target T1, Human vitronectin receptor (αv β3) (Homo sapiens, UniProt P05106+P06756).
T1 construct: Human vitronectin receptor(αv β3) was purified from human placenta; from tissue; host or cells: human placenta
The experiment can be described thus: Vitronectin adhesion assay (solid phase receptor assay, biotinylated vitronectin competition). The experiment is classed as binding. The note with it: inhibition of 50% of the maximum binding of biotinylated vitronectin; 1 nM labeled ligand, 2 hours, room temperature, highest concentration of test compound 1.0×10^-4 M; read-out: AvB3 IC50. The essentials:
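Placenta-purified αvβ3 coated at 1.0 μg/mL in TBS (1 mM Ca, Mg, Mn, pH 7.4), overnight 4 °C. Compound competed 2 h at RT with 1 nM biotinylated vitronectin (final; top compound 1.0×10^-4 M); bound ligand detected by HRP anti-biotin/OPD at 450 nm, normalized to no-competitor controls, four-parameter fit.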

For experiment [2], the target named is T2, Human fibrinogen receptor (αIIb β3) (Homo sapiens, UniProt P05106+P08514).
T2 construct: Human fibrinogen receptor (αIIb β3) was purified from outdated platelets; from tissue; host or cells: outdated human platelets
The experiment can be described thus: Purified IIb/IIIa receptor assay (solid phase receptor assay, biotinylated vitronectin competition). To be noted: inhibition of 50% of the maximum binding of biotinylated vitronectin; 1 nM labeled ligand, 2 hours, room temperature, highest concentration of test compound 1.0×10^-4 M. In outline:
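Platelet-purified αIIbβ3 was coated at 100 ng/well in TBS with 1 mM Ca²⁺/Mg²⁺/Mn²⁺, pH 7.4, then BSA-blocked. Compound (up to 1.0×10⁻⁴ M final) competed with 1 nM biotinylated vitronectin for 2 h at room temperature. Bound ligand was detected with HRP anti-biotin at A450, normalized to maximum binding, and curve-fitted.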

One may read the IC50 as the point on the concentration scale where inhibition reaches its midpoint. Take `O=C(O)CC(c1cc(F)cc(F)c1)c1cccc(NS(=O)(=O)c2cccc(NC3=NCCN3)c2)c1` (stereo not drawn) [Example 98, β-[3-[[[3-[(4,5-dihydro-1H-imidazol-2-yl)amino]phenyl]sulfonyl]amino]phenyl]-3,5-difluorobenzenepropanoic Acid, Trifluoroacetate Salt]: the values for the IC50 in experiment [1] and in experiment [2] were 0.85 nM and 642 nM, respectively.
With `O=C(O)CC(c1ccccc1)c1cccc(OCc2cccc(NC3=NCCN3)c2)c1` (stereo not drawn) [Example 99, 3-[[3-[(4,5-dihydro-1H-imidazol-2-yl)amino]phenyl]methoxy]-β-phenylbenzenepropanoic Acid, Trifluoroacetate Salt], the IC50 came out at 48.6 nM in experiment [1] and 1000 nM in experiment [2].
In the case of `N=C(N)Nc1cccc(S(=O)(=O)Nc2cccc(C3CC(=O)Oc4ccccc43)c2)c1` (stereo not shown) [Example 100, 3-[(aminoiminomethyl)amino]-N-[3-(3,4-dihydro-2-oxo-2H-benzopyran-4-yl)phenyl]benzenesulfonamide, Trifluoroacetate Salt], the 50% inhibitory concentration (IC50) turned out to be 21.8 nM in experiment [1] and 2340 nM in experiment [2].
Turning to `O=C1CC(c2cccc(NS(=O)(=O)c3cccc(NC4=NCCN4)c3)c2)c2ccccc2O1` (stereo not shown) [Example 101, 3-[(4,5-dihydro-1H-imidazol-2-yl)amino]-N-[3-(3,4-dihydro-2-oxo-2H-benzopyran-4-yl)phenyl]benzenesulfonamide, Trifluoroacetate Salt], the IC50 was found to be 50.3 nM in experiment [1] and 3250 nM in experiment [2].
Take `N=C(N)Nc1cccc(S(=O)(=O)Nc2cccc(C(CC(=O)O)c3ccccc3O)c2)c1` (stereo not drawn) [Example 102, Sodium β-[3-[[[3[(aminoiminomethyl)amino]phenyl]-sulfonyl]amino]phenyl]-2-hydroxybenzenepropanoate, Trifluoroacetate Salt]: the half-maximal inhibitory concentration (IC50) is 23.2 nM in experiment [1] and 706 nM in experiment [2].
